Reference: patent US20220175795A1, “USE OF FULVESTRANT FOR THE THERAPEUTIC CARE OF CENTRAL CORE DISEASE” (UNIVERSITÉ GRENOBLE ALPES, priority 2019, published 2022)
“Also recorded” adds a separate entry of the source.

Experiments:
human control cells CTRL = test: Calcium imaging (Fluo-4, KCl 140 mM stimulation) on human control muscle cells; format: cell-based; conditions: 7 days in differentiation medium
Experimental: The CTRL cells are immortalized human cells from a biopsy of a healthy subject having no calcium release abnormality.
(§1) The medium has been renewed 4 days after placing in the differentiation medium.
(§2) For human cells, the shape of the cells not allowing them to be distinguished individually in an accurate manner, the measurements were made on a single region of interest per well corresponding to the total surface covered by the myotubes. 4 to 6 wells were measured for each repetition of the experiment.
(§3) Fulvestrant was tested on human muscle cells having or not a calcium release defect (human cells CTRL or MELA), by incubation of 7 days in differentiation medium.

[1] = tested on: immortalized human MELA cells; test: Calcium imaging (Fluo-4, KCl 140 mM stimulation) on cells of a central core disease patient; format: cell-based; conditions: 7 days in differentiation medium, not statistically significant
From the text: The MELA cells are immortalized human cells derived from a biopsy of a patient suffering from central core disease, including in particular a quantitative defect of RyR1 and a calcium release defect (Rendu et al., 2013). These cells were immortalised by the team of Vincent Mouly (Institute of Myology, Paris).
as §1, §2, §3

[2] = tested on: RyR1^Rec mice (model of central core disease); test: Animal grip test (gripping time on inverted grid) in inducible RyR1 KO mice; format: in vivo
Experimental: For this study, an inducible and non-lethal model of KO mice for RyR1 developed in the laboratory was used. In these mice, exons 9 to 11 of the RYR1 gene are flanked by LoxP sites on both alleles (RYR1 fl/fl).
KO was induced by intraperitoneal injections of tamoxifen (Sigma) eight weeks after birth, at 1 mg/day for five days. It is important to note that all animals have received these injections, whether they have the HSA-Cre allele or not.
Exclusively in animals having the HSA-Cre allele, tamoxifen (TAM) causes the translocation of the Cre recombinase to the nucleus, thus allowing the recombination of the LoxP sites and the deletion of exons 9-11 from the RYR1 gene (FIG. 1). In order to improve the understanding, the mice in which the recombination cannot be made will be referred to as the RyR1^Ctrl mice in the following document. The recombinant mice after intraperitoneal administration of TAM will be referred to as RyR1^Rec mice.
For the treatment of animals, fulvestrant was prepared from a commercial solution of Faslodex 250 mg (AstraZeneca). This solution was diluted in physiological serum and 0.27 mg of fulvestrant was injected to each mouse (weight of 20 g) in 50 μl volume. The injections were carried out intramuscularly in the quadriceps once per week.
In order to evaluate the muscular strength of the animals, the mice were placed on a grid which was then turned upside down. The duration during which the mice remain gripped at the grid has been timed to a limit of 300 seconds. This measurement was carried out in a weekly manner over the entire population of mice of the study.
The strength of the animals is followed by a grip test (gripping test) once a week, just before the injections.

[3] = tested on: recombinant RyR1 cells (RyR1-Rec murine myotubes); conditions: 72 h, 0.1 µM
Experimental: The satellite cells were isolated from the skeletal muscles of the lower limbs of the neonate mice RyR1^Ctrl according to the procedure described in Marty et al, 2000.
The cells were seeded in 96 well plates (75,000 cells/well) previously coated with laminin. The cells were first cultured in the proliferation medium composed of Ham's F-10 Nutrient Mix (Life Technologies), 20% fetal calf serum (Life Technologies), 2% Ultroser G (PALL) and 2% Penicillin-Streptomycin (Life Technologies).
In order to induce floxed RyR1 gene recombination, the cells thus have been transduced 12 hours after seeding with adenoviruses allowing the expression of Cre recombinase, AdV-Cre (Utah University), to a multiplicity of infections (multiplicity of infection, or MOI) of 64. […]
The films were analyzed by the Fiji (Schindelin et al., 2012) and Prim (GraphPad) softwares.
For murine cells, the fluorescence measurements were performed on regions of interest each corresponding to a myotube, with several tens of myotubes measured for each repetition of the experiment.
The intensity of the calcium release was evaluated in response to a stimulation by KCl 140 mM (mimicking a depolarization at ˜0 mV). […]

SMILES: C[C@]12CC[C@@H]3c4ccc(O)cc4C[C@@H](CCCCCCCCC[S+]([O-])CCCC(F)(F)C(F)(F)F)[C@H]3[C@@H]1CC[C@@H]2O (some centres unmarked) [fulvestrant]
- effect on calcium release (human control cells CTRL; fulvestrant 100 nM): has no effect; also recorded: does not have an effect
- effect on calcium release (human control cells CTRL; fulvestrant 250 nM): has no effect; also recorded: does not have any effect
- effect on calcium release ([1]; fulvestrant 100 nM): tends to increase calcium release; also recorded: tendency to improve the calcium release
- effect on calcium release ([1]; fulvestrant 250 nM): tends to increase the release of calcium
- strength (gripping time) vs untreated mice ([2]; female RyR1^Rec mice, intramuscular injection once a week, grip test weekly (limit 300 seconds)): very sharp improvement; also recorded: significantly improved
- strength over the entire duration of the treatment ([2]; mice with induced central core disease, 75 days of treatment): did not lose strength
- increase of the calcium release peak vs untreated cells [3]: 28%
- magnitude of the calcium release peak (Fluo-4 fluorescence) [3]: 0.40+/−0.04
